How the values were obtained:
[1] = target: Death-associated protein kinase 3 (Homo sapiens) (UniProt O43293)
[2] = target: T1, Serine/threonine-protein kinase 17A (Homo sapiens) (UniProt Q9UEE5)
T1 sequence (whole entry): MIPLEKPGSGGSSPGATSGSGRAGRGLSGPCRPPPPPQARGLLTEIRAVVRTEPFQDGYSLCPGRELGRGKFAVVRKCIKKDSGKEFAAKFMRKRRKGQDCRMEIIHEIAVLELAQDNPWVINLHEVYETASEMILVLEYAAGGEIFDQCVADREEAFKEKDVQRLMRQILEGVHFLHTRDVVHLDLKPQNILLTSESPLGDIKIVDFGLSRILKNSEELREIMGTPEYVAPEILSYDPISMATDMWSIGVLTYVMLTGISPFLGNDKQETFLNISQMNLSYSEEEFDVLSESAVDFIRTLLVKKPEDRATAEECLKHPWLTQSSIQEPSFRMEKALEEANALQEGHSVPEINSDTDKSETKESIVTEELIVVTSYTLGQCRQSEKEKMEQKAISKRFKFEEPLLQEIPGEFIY

[3] = target: T2, Mitogen-activated protein kinase kinase kinase 5 (Homo sapiens) (UniProt Q99683)
T2 sequence (whole entry): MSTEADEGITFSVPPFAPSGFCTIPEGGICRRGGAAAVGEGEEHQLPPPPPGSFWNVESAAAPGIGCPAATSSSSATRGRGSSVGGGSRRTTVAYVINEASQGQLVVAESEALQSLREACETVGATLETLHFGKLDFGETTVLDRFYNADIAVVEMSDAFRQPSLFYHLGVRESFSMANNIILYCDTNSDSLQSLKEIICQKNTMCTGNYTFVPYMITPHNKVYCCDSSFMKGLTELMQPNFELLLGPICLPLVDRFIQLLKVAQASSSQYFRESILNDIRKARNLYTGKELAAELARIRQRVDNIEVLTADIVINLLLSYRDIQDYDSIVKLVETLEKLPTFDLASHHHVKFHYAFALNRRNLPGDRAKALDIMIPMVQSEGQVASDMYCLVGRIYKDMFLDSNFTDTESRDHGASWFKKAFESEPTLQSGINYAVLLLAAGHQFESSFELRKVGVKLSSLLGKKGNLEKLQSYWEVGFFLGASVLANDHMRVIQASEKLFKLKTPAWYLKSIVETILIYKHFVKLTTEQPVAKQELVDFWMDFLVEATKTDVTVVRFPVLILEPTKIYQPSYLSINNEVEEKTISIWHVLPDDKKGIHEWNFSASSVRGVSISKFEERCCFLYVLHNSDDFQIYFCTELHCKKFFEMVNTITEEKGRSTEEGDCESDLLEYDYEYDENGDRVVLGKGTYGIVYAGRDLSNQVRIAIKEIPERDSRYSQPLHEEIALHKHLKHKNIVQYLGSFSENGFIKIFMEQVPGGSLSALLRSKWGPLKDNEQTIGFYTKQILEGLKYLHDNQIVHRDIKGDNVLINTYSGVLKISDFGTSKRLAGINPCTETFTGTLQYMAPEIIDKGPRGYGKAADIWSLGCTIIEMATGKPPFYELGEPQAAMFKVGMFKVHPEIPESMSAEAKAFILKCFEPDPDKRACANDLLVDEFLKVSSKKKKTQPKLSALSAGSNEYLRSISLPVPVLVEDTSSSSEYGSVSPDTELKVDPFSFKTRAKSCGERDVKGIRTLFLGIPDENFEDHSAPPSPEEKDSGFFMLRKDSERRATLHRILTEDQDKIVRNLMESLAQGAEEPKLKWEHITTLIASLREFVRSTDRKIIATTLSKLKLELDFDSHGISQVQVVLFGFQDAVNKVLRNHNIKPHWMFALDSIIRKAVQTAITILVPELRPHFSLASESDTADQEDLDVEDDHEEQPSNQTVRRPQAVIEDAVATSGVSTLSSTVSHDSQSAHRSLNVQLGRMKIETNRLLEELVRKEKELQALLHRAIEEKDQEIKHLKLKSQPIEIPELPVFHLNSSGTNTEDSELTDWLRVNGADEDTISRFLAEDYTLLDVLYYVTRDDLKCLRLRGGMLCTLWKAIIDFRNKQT

[4] = target: 5'-AMP-activated protein kinase catalytic subunit alpha-2 (Homo sapiens) (UniProt P54646)
Chain of 5'-AMP-activated protein kinase catalytic subunit alpha-2 (Homo sapiens) (P54646 whole entry, looked up): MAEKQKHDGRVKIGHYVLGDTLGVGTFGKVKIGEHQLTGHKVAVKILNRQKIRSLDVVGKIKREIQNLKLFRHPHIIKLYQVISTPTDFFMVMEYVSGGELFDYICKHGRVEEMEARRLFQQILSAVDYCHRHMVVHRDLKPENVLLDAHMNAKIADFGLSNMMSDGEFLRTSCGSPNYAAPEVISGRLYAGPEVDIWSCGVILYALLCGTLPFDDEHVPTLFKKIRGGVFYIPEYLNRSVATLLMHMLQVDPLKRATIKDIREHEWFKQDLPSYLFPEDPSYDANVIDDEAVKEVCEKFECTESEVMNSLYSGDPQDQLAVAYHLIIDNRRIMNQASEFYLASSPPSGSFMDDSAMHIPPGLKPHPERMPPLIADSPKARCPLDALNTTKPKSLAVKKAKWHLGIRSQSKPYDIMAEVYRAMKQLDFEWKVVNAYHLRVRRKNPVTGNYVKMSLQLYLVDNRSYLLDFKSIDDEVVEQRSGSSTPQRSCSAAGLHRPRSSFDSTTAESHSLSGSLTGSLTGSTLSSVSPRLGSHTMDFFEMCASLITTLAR

[5] = target: Cyclin-dependent kinase 2 (Homo sapiens, UniProt P24941)
[6] = target: Mitogen-activated protein kinase 3 (Homo sapiens, UniProt P27361)
Chain of Mitogen-activated protein kinase 3 (P27361 whole entry): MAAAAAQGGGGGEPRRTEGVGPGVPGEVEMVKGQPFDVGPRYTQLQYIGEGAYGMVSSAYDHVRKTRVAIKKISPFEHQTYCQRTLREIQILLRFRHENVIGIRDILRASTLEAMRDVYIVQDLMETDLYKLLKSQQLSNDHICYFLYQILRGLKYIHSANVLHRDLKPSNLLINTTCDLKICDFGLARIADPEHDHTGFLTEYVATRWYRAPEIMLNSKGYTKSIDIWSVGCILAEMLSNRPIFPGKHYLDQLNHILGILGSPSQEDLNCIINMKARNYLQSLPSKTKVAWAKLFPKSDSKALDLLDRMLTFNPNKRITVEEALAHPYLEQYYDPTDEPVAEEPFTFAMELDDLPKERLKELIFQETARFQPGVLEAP

[7] = target: Serine/threonine-protein kinase 26 (Homo sapiens) (UniProt Q9P289)
Chain of Serine/threonine-protein kinase 26 (Homo sapiens) (Q9P289 2-416 limits assumed): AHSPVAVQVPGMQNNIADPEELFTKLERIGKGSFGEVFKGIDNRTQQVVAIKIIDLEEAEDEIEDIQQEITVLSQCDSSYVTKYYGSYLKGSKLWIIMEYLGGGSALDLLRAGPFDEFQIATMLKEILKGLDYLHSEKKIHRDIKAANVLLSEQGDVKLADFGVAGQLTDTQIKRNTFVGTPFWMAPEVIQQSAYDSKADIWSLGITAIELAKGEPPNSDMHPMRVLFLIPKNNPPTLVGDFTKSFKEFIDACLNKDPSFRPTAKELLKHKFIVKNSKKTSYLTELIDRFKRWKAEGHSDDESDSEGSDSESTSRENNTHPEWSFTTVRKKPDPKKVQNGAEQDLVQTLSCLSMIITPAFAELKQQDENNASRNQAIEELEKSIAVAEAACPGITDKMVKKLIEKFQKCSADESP

[8] = target: T3, Serine/threonine-protein kinase VRK1 (Homo sapiens) (UniProt Q99986)
T3 sequence (whole entry): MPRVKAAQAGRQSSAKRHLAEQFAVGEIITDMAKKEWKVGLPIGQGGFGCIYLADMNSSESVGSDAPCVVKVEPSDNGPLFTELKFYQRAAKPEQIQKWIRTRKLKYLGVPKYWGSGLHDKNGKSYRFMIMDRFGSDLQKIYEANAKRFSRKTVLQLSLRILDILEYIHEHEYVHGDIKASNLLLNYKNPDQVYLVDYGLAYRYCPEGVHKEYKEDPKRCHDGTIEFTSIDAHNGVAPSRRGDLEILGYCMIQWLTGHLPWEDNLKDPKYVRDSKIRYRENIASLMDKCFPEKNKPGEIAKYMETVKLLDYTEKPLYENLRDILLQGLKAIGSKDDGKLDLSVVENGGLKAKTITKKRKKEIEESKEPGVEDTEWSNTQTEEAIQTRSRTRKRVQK

Chain of Death-associated protein kinase 3 (Homo sapiens) (O43293 whole entry, looked up): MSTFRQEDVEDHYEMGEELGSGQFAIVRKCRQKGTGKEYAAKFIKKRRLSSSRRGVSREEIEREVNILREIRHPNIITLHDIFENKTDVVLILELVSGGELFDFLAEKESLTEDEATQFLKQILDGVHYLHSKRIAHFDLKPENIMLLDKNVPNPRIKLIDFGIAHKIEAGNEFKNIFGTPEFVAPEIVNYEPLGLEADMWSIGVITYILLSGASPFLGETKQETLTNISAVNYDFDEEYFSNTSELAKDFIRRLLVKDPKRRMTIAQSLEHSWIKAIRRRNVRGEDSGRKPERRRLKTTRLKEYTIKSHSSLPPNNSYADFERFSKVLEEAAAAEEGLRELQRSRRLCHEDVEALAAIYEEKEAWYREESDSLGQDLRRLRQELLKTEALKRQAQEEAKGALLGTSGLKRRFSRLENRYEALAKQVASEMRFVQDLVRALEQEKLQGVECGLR

SMILES | ΔTm [1] | ΔTm [2] | ΔTm [3] | ΔTm [4] | ΔTm [5] | ΔTm [6] | ΔTm [7] | ΔTm [8]
CC(C)c1nn(-c2c(Cl)cccc2Cl)c2nc(Cc3ccc(OCCO)cc3)[nH]c(=O)c12 | 6.2 °C | 0.1 °C | 1 °C | 1 °C | 10.6 °C | 3.4 °C | -0.3 °C | 
C[C@@H]1C[C@H]2O[C@@H]2/C=C\C=C\C(=O)Cc2c(Cl)c(O)cc(O)c2C(=O)O1 [RADICICOL] | -0.3 °C | 1 °C | -0.2 °C | -0.3 °C | 0.5 °C | 0 °C | -0.2 °C | -0.2 °C
CCN1/C(=C/C(C)=O)Sc2ccc(OC)cc21 | 0.9 °C | 0.4 °C | 0.4 °C | -0.1 °C | 0.1 °C | -0.4 °C | -0.3 °C | 0.3 °C
COc1cc2c(cc1OC)-c1n[nH]c(Nc3cccc(F)c3)c1C2 | 0.2 °C | 1.3 °C | 4 °C | -0.3 °C | 0 °C | 0.6 °C | 1.2 °C | 0.4 °C
NC(=O)c1ccc2[nH]c(-c3ccc(Oc4ccc(Cl)cc4)cc3)nc2c1 | 1.2 °C | 0.7 °C | 1 °C | -0.9 °C | -0.7 °C | -0.2 °C | -0.1 °C | 0.5 °C
CC(C)[C@H](CO)Nc1nc(Nc2cc(N)cc(Cl)c2)c2ncn(C(C)C)c2n1 [AMINOPURVALANOL] | 3.4 °C | 1.6 °C | 2.4 °C | 0.3 °C |  | 0.2 °C | 4.3 °C | 
COc1nccc(-c2c(-c3ccc(F)cc3)ncn2[C@H]2CC[C@H](O)CC2)n1 | 0.4 °C | 0 °C |  | 0.7 °C | -0.6 °C | 0 °C | -1.4 °C | 1.2 °C
O=C1Nc2ccccc2/C1=C/c1cnc[nH]1 | 1.6 °C | 9 °C | 5 °C | 3.3 °C | 6.6 °C | 2.1 °C | 4.3 °C | 0.5 °C
COc1cc(O)c2c(c1)oc(=O)c1c3cc(O)c(O)cc3oc21 [WEDELOLACTONE] | 0 °C | 3 °C | 0.8 °C | -0.8 °C | -4.5 °C | 0.8 °C | 1.4 °C | 0 °C
O=C1Nc2ccc(S(=O)(=O)O)cc2/C1=C1/Nc2ccccc2/C1=N\O | 6.4 °C | 9.8 °C | 3.8 °C | 5.5 °C | 8.1 °C | 2.4 °C | 1.2 °C | 0 °C
O=S(=O)(c1cccc2c(Cl)cccc12)N1CCCNCC1 | 2.5 °C | 0.7 °C | 0.6 °C | -0.4 °C | 0.8 °C | 0.4 °C | 0 °C | 0.3 °C
O=c1c(O)c(-c2ccc(O)c(O)c2)oc2cc(O)cc(O)c12 [QUERCETIN] | 7.5 °C | 9.3 °C | 3.4 °C | 2.3 °C | 5.3 °C | 1.9 °C | 4.4 °C | 1.4 °C
C=CNC#N | -0.2 °C | 0.7 °C | 0.4 °C | -0.7 °C | -0.2 °C | -0.6 °C | -1.4 °C | 1 °C
O=C(Nc1cccc(Nc2nccc(Nc3cccc(C(F)(F)F)c3)n2)c1)C1CC1 [ANILINOPYRIMIDINE1] | 6.5 °C | 1.5 °C | 0.2 °C | 1.5 °C | 0 °C | 0.9 °C | 1.5 °C | 
Cc1nc(N)sc1-c1ccnc(Nc2cccc([N+](=O)[O-])c2)n1 | 8.7 °C | 1.9 °C | 1.2 °C | 3 °C |  | 2.7 °C | 0.4 °C | 
COc1ccc(Cl)cc1NC(=O)Nc1cc(C)nc2ccccc12 | 2.3 °C | -0.1 °C | 2.2 °C | -0.4 °C | -0.6 °C | 2.5 °C | 1.1 °C | 
CC[C@H](CO)Nc1nc(NCc2ccccc2)c2ncn(C(C)C)c2n1 [SELICICLIB] |  | -0.5 °C | 1 °C | 0.4 °C |  | 0.4 °C | 0.6 °C | 0 °C
Cc1ccc(NC2=CC(=O)c3sc(C)nc3C2=O)cc1 | -0.2 °C | -0.8 °C | -0.2 °C | 0 °C | 0.2 °C | -1.5 °C | -0.5 °C | 
COc1ccc2c(c1)/C(=C/c1cnc[nH]1)C(=O)N2 [SU-9516] | 2.7 °C | 9.8 °C | 5.4 °C | 4.1 °C |  | 2.6 °C | 4.2 °C | 0.5 °C
NS(=O)(=O)c1ccc(Nc2nc(OCC3CCCCC3)c3nc[nH]c3n2)cc1 | 0.8 °C | 1.8 °C | 2.4 °C | 1.9 °C |  | 0.1 °C | 2.9 °C | 1.1 °C
Brc1c(Br)c(Br)c2[nH]nnc2c1Br [TETRABROMOBENZOTRIAZOLE] | 3.6 °C | 4.1 °C | 1.9 °C | 0.4 °C |  | 0 °C | 1.2 °C | -1.5 °C
CN(c1cccnc1)c1cc2c(Nc3ccc(F)c(Cl)c3)c(C#N)cnc2cn1 | 0.7 °C | 4.7 °C | 1.4 °C | 4.8 °C | -0.5 °C | -1.9 °C | 1.3 °C | 
CN1CCc2[nH]c(=S)c(C#N)c(-c3cccs3)c2C1 | 0.3 °C | 0.9 °C | 4.7 °C | 0.4 °C | 0 °C | 0.6 °C | 1 °C | 
Cn1cnc2c(NCc3ccccc3)nc(NCCO)nc21 [OLOMOUCINE] | -0.1 °C | -0.1 °C | 0.1 °C | 0.2 °C |  | 0.2 °C | 0.2 °C | 0.4 °C
O=C(Nc1cccc(Nc2cc(Nc3cccc(C(F)(F)F)c3)ncn2)c1)C1CC1 | 2.1 °C | 1.5 °C | 0.9 °C | -3.7 °C | -1.5 °C | 1.5 °C | 1.7 °C | 
